Source: patent US20060073172A1, “Stabilized ophthalmic solution for the treatment of glaucoma and lowering intraocular pressure” (priority 2004, published 2006)

How the values were obtained:
5-HT2 receptors = conditions: cited from earlier work; for 5-HT2 receptor subtype selectivity: 5-HT2A, 5-HT2B, 5-HT2C
[1] = Stabilization of 1-(2-aminopropyl)-indazol-6-ol by classical antioxidants; assay type: physicochemical; conditions: aqueous solution

Row | Compound | 5-HT2 receptor subtype selectivity (5-HT2 receptors) | Stabilization by classical antioxidants (sodium metabisulfite, propyl gallate, ascorbic acid) [1] | 5-HT2 agonist activity (5-HT2 receptors)
1 | COc1ccc2[nH]cc(CC(C)N)c2c1 (stereo not drawn) [5-methoxy-α-methyltryptamine] | profile similar to that of α-methyl-serotonin | – | –
2 | COc1cc(C[C@@H](C)N)c(OC)cc1I [(R)-DOI, (R)4-iodo-2,5 dimethoxy-α-methyl-benzeneethanamine] | not selective amongst the 5-HT2 receptor subtypes | – | –
3 | CC(N)Cn1ncc2ccc(O)cc21 (centres unmarked) [AL-34662, 1-(2-aminopropyl)-indazol-6-ol] | – | did not stabilize | –
4 | CC(N)Cc1c[nH]c2ccc(O)cc12 (stereo not drawn) [α-methyl-serotonin] | modest receptor subtype selectivity: 5-HT2B>5-HT2C>5-HT2A | – | potent 5-HT2 agonist
